According to ChEMBL document CHEMBL1201861, “Genomics of Drug Sensitity in Cancer screening data, Wellcome Trust Sanger Institute”:

How the values were obtained:
CAMA-1 = assay: cells; type: functional, cell-based; conditions: Homo sapiens;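 also: growth inhibition of CAMA-1 cells, read out with a cell viability assay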
Description: SANGER: Inhibition of human CAMA-1 cell growth in a cell viability assay.

SW1088 = assay: cells; type: functional, cell-based; conditions: Homo sapiens;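 also: growth inhibition of human SW1088 cells, read out by a cell viability assay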
Description: SANGER: Inhibition of human SW1088 cell growth in a cell viability assay.

CESS = assay: SANGER: Inhibition of human CESS cell growth in a cell viability assay.; type: functional, cell-based; conditions: Homo sapiens, CESS
IMR-5 = assay: cells; type: functional, cell-based, Homo sapiens; conditions: Homo sapiens, IMR-5; read-out: IC50;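 also: growth inhibition of human IMR-5 cells, read out with a cell viability assay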
Description: SANGER: Inhibition of human IMR-5 cell growth in a cell viability assay.

NCI-H1563 = assay: cells; type: functional, cell-based; conditions: Homo sapiens;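 also: growth inhibition of human NCI-H1563 cells, read out with a cell viability assay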
Description: SANGER: Inhibition of human NCI-H1563 cell growth in a cell viability assay.

IPC-298 = assay: SANGER: Inhibition of human IPC-298 cell growth in a cell viability assay.; type: functional, cell-based
IM-9 = assay: SANGER: Inhibition of human IM-9 cell growth in a cell viability assay.; type: functional, cell-based; conditions: Homo sapiens, IM-9
NCI-H2030 = assay: cells; type: functional, cell-based; conditions: Homo sapiens;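 also: growth inhibition of human NCI-H2030 cells, read out by a cell viability assay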
Description: SANGER: Inhibition of human NCI-H2030 cell growth in a cell viability assay.

Kasumi 1 = assay: cells; type: functional, cell-based, Homo sapiens; conditions: Homo sapiens, Kasumi 1;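 also: growth inhibition of human Kasumi-1 cells, read out by a cell viability assay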
Description: SANGER: Inhibition of human KASUMI-1 cell growth in a cell viability assay.

LC-1F = assay: cells; type: functional, cell-based, Homo sapiens; conditions: Homo sapiens, LC-1F;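 also: growth inhibition of human LC-1F cells, read out with a cell viability assay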
Description: SANGER: Inhibition of human LC-1F cell growth in a cell viability assay.

NCI-H28 = assay: cells; type: functional, cell-based; conditions: Homo sapiens;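 also: growth inhibition of human NCI-H28 cells, read out as cell viability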
Description: SANGER: Inhibition of human NCI-H28 cell growth in a cell viability assay.

KP-4 = assay: cells; type: functional, cell-based; conditions: Homo sapiens;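 also: human KP-4 cells, with growth inhibition read out through a cell viability assay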
Description: SANGER: Inhibition of human KP-4 cell growth in a cell viability assay.

RERF-LC-MS = assay: cells; type: functional, cell-based; conditions: Homo sapiens;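 also: growth inhibition of human RERF-LC-MS cells, read out by a cell viability assay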
Description: SANGER: Inhibition of human RERF-LC-MS cell growth in a cell viability assay.

SR = assay: cells; type: functional, cell-based, Homo sapiens; conditions: Homo sapiens, SR
Description: SANGER: Inhibition of human SR cell growth in a cell viability assay.

BHY = assay: cells; type: functional, cell-based; conditions: Homo sapiens;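 also: cell growth inhibition read out by a viability assay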
Description: SANGER: Inhibition of human BHY cell growth in a cell viability assay.

NCI-H1882 = assay: cells; type: functional, cell-based, Homo sapiens; conditions: Homo sapiens, NCI-H1882;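 also: growth inhibition of the cell line, determined with a viability assay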
Description: SANGER: Inhibition of human NCI-H1882 cell growth in a cell viability assay.

LoVo = assay: cells; type: functional, cell-based; conditions: Homo sapiens;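 also: growth inhibition of human LoVo cells, read out with a cell viability assay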
Description: SANGER: Inhibition of human LoVo cell growth in a cell viability assay.

U-251 = assay: cells; type: functional, cell-based; conditions: Homo sapiens;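 also: growth inhibition of human U-251 cells, read out through a cell viability assay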
Description: SANGER: Inhibition of human U251 cell growth in a cell viability assay.

HN = assay: cells; type: functional, cell-based; conditions: Homo sapiens
Description: SANGER: Inhibition of human HN cell growth in a cell viability assay.

CAL-27 = assay: cells; type: functional, cell-based; conditions: Homo sapiens;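 also: Viability-based readout, IC50 reflecting inhibition of CAL-27 cell growth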
Description: SANGER: Inhibition of human CAL-27 cell growth in a cell viability assay.

EHEB = assay: cells; type: functional, cell-based; conditions: Homo sapiens;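 also: growth inhibition of human EHEB cells, read out with a cell viability assay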
Description: SANGER: Inhibition of human EHEB cell growth in a cell viability assay.

HCC70 = assay: cells; type: functional, cell-based; conditions: Homo sapiens;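 also: cell viability assay measuring how strongly the compound suppresses proliferation of HCC70 cells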
Description: SANGER: Inhibition of human HCC70 cell growth in a cell viability assay.

U-698-M = assay: cells; type: functional, cell-based, Homo sapiens; conditions: Homo sapiens, U-698-M
Description: SANGER: Inhibition of human U-698-M cell growth in a cell viability assay.

RT-4 = assay: SANGER: Inhibition of human RT4 cell growth in a cell viability assay.; type: functional, cell-based
OE19 = assay: cells; type: functional, cell-based; conditions: Homo sapiens;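 also: growth inhibition of OE19 cells, measured through a cell viability read-out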
Description: SANGER: Inhibition of human OE19 cell growth in a cell viability assay.

M059J = assay: cells; type: functional, cell-based; conditions: Homo sapiens;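 also: growth inhibition of M059J cells, read out with a cell viability assay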
Description: SANGER: Inhibition of human M059J cell growth in a cell viability assay.

EFE-184 = assay: cells; type: functional, cell-based; conditions: Homo sapiens
Description: SANGER: Inhibition of human EFE-184 cell growth in a cell viability assay.

ECC12 = assay: cells; type: functional, cell-based; conditions: Homo sapiens
Description: SANGER: Inhibition of human ECC12 cell growth in a cell viability assay.

Caov-3 cell line = assay: cells; type: functional, cell-based; conditions: Homo sapiens;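 also: cell growth inhibition read out by a viability assay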
Description: SANGER: Inhibition of human Caov-3 cell growth in a cell viability assay.

CMK = assay: cells; type: functional, cell-based, Homo sapiens; conditions: Homo sapiens, CMK;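 also: growth inhibition of CMK cells, read out as cell viability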
Description: SANGER: Inhibition of human CMK cell growth in a cell viability assay.

NCI-H2342 = assay: cells; type: functional, cell-based; conditions: Homo sapiens;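 also: growth inhibition of the cancer cell line, determined with a cell viability assay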
Description: SANGER: Inhibition of human NCI-H2342 cell growth in a cell viability assay.

C3A = assay: cells; type: functional, cell-based; conditions: Homo sapiens;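 also: growth inhibition of C3A human cells, quantified with a cell viability readout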
Description: SANGER: Inhibition of human C3A cell growth in a cell viability assay.

MDA-MB-134-VI = assay: cells; type: functional, cell-based, Homo sapiens; conditions: Homo sapiens, MDA-MB-134-VI
Description: SANGER: Inhibition of human MDA-MB-134-VI cell growth in a cell viability assay.

NB12 = assay: cells; type: functional, cell-based; conditions: Homo sapiens;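 also: growth inhibition of human NB12 cells, read out by a cell viability assay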
Description: SANGER: Inhibition of human NB12 cell growth in a cell viability assay.

SNG-M = assay: cells; type: functional, cell-based; conditions: Homo sapiens
Description: SANGER: Inhibition of human SNG-M cell growth in a cell viability assay.

SIMA = assay: cells; type: functional, cell-based, Homo sapiens; conditions: Homo sapiens, SIMA;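 also: growth inhibition of SIMA cells, measured with a cell viability readout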
Description: SANGER: Inhibition of human SIMA cell growth in a cell viability assay.

GCT = assay: cells; type: functional, cell-based; conditions: Homo sapiens;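 also: GCT cell line proliferation inhibition, read out with a cell viability assay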
Description: SANGER: Inhibition of human GCT cell growth in a cell viability assay.

T84 = assay: cells; type: functional, cell-based; conditions: Homo sapiens;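 also: growth inhibition measured with a cell viability readout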
Description: SANGER: Inhibition of human T84 cell growth in a cell viability assay.

Capan-2 = assay: cells; type: functional, cell-based; conditions: Homo sapiens;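 also: Capan-2 cell growth inhibition, read out with a viability assay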
Description: SANGER: Inhibition of human Capan-2 cell growth in a cell viability assay.

NCI-H1623 = assay: cells; type: functional, cell-based; conditions: Homo sapiens;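 also: cell viability assay used as the read-out for growth inhibition of NCI-H1623 cells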
Description: SANGER: Inhibition of human NCI-H1623 cell growth in a cell viability assay.

SK-HEP1 = assay: cells; type: functional, cell-based, SK-HEP-1; conditions: Homo sapiens;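 also: cell viability readout used to quantify reduction in proliferation of human SK-HEP-1 cells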
Description: SANGER: Inhibition of human SK-HEP-1 cell growth in a cell viability assay.

SNU-449 = assay: cells; type: functional, cell-based; conditions: Homo sapiens
Description: SANGER: Inhibition of human SNU-449 cell growth in a cell viability assay.

EGI-1 = assay: cells; type: functional, cell-based; conditions: Homo sapiens;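 also: cell viability readout used to gauge growth inhibition of EGI-1 cells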
Description: SANGER: Inhibition of human EGI-1 cell growth in a cell viability assay.

SNU-387 = assay: cells; type: functional, cell-based; conditions: Homo sapiens
Description: SANGER: Inhibition of human SNU-387 cell growth in a cell viability assay.

MKN-45 = assay: cells; type: functional, cell-based; conditions: Homo sapiens;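 also: growth inhibition of human MKN-45 cells, measured with a cell viability assay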
Description: SANGER: Inhibition of human MKN45 cell growth in a cell viability assay.

MFE-296 = assay: SANGER: Inhibition of human MFE-296 cell growth in a cell viability assay.; type: functional, cell-based

COC(=O)[C@H](CCSC)NC(=O)c1ccc(NC[C@@H](N)CS)cc1-c1ccccc1
IC50 (CAMA-1): > 1020 nM | IC50 (SW1088): > 1020 nM | IC50 (CESS): > 1020 nM | IC50 (IMR-5): > 1020 nM | IC50 (NCI-H1563): > 1020 nM | IC50 (IPC-298): > 1020 nM | IC50 (IM-9): > 1020 nM | IC50 (NCI-H2030): > 1020 nM | IC50 (Kasumi 1): > 1020 nM | IC50 (LC-1F): > 1020 nM | IC50 (NCI-H28): > 1020 nM | IC50 (KP-4): > 1020 nM | IC50 (RERF-LC-MS): > 1020 nM | IC50 (SR): > 1020 nM | IC50 (BHY): > 1020 nM | IC50 (NCI-H1882): > 1020 nM | IC50 (LoVo): > 1020 nM | IC50 (U-251): > 1020 nM | IC50 (HN): > 1020 nM | IC50 (CAL-27): > 1020 nM | IC50 (EHEB): > 1020 nM | IC50 (HCC70): > 1020 nM | IC50 (U-698-M): > 1020 nM | IC50 (RT-4): > 1020 nM | IC50 (OE19): > 1020 nM | IC50 (M059J): > 1020 nM | IC50 (EFE-184): > 1020 nM | IC50 (ECC12): > 1020 nM | IC50 (Caov-3 cell line): > 1020 nM | IC50 (CMK): > 1020 nM | IC50 (NCI-H2342): > 1020 nM | IC50 (C3A): > 1020 nM | IC50 (MDA-MB-134-VI): > 1020 nM | IC50 (NB12): > 1020 nM | IC50 (SNG-M): > 1020 nM | IC50 (SIMA): > 1020 nM | IC50 (GCT): > 1020 nM | IC50 (T84): > 1020 nM | IC50 (Capan-2): > 1020 nM | IC50 (NCI-H1623): > 1020 nM | IC50 (SK-HEP1): > 1020 nM | IC50 (SNU-449): > 1020 nM | IC50 (EGI-1): > 1020 nM | IC50 (SNU-387): > 1020 nM | IC50 (MKN-45): > 1020 nM | IC50 (MFE-296): > 1020 nM

O=S(=O)(O)c1ccc2cc(/N=N/c3cc(S(=O)(=O)O)c4cccnc4c3O)ccc2c1
IC50 (CAMA-1): > 16000 nM | IC50 (SW1088): > 16000 nM | IC50 (CESS): > 16000 nM | IC50 (IMR-5): > 16000 nM | IC50 (NCI-H1563): > 16000 nM | IC50 (IPC-298): > 16000 nM | IC50 (IM-9): > 16000 nM | IC50 (NCI-H2030): > 16000 nM | IC50 (Kasumi 1): > 16000 nM | IC50 (LC-1F): > 16000 nM | IC50 (NCI-H28): > 16000 nM | IC50 (KP-4): > 16000 nM | IC50 (RERF-LC-MS): > 16000 nM | IC50 (SR): > 16000 nM | IC50 (BHY): > 16000 nM | IC50 (NCI-H1882): > 16000 nM | IC50 (LoVo): > 16000 nM | IC50 (U-251): > 16000 nM | IC50 (HN): > 16000 nM | IC50 (CAL-27): > 16000 nM | IC50 (EHEB): > 16000 nM | IC50 (HCC70): > 16000 nM | IC50 (U-698-M): > 16000 nM | IC50 (RT-4): > 16000 nM | IC50 (OE19): > 16000 nM | IC50 (M059J): 14900 nM | IC50 (EFE-184): > 16000 nM | IC50 (ECC12): > 16000 nM | IC50 (Caov-3 cell line): > 16000 nM | IC50 (CMK): > 16000 nM | IC50 (NCI-H2342): > 16000 nM | IC50 (C3A): > 16000 nM | IC50 (MDA-MB-134-VI): > 16000 nM | IC50 (NB12): > 16000 nM | IC50 (SNG-M): > 16000 nM | IC50 (SIMA): > 16000 nM | IC50 (GCT): > 16000 nM | IC50 (T84): > 16000 nM | IC50 (Capan-2): > 16000 nM | IC50 (NCI-H1623): > 16000 nM | IC50 (SK-HEP1): > 16000 nM | IC50 (SNU-449): > 16000 nM | IC50 (EGI-1): > 16000 nM | IC50 (SNU-387): > 16000 nM | IC50 (MKN-45): > 16000 nM | IC50 (MFE-296): > 16000 nM

Cc1ccc(C(=O)Nc2ccc(CN3CCN(C)CC3)c(C(F)(F)F)c2)cc1C#Cc1cnc2cccnn12 [PONATINIB]
IC50 (CAMA-1): > 512 nM | IC50 (SW1088): 444 nM | IC50 (CESS): > 512 nM | IC50 (IMR-5): > 512 nM | IC50 (NCI-H1563): > 512 nM | IC50 (IPC-298): > 512 nM | IC50 (IM-9): > 512 nM | IC50 (NCI-H2030): 312 nM | IC50 (Kasumi 1): 2.17 nM | IC50 (LC-1F): > 512 nM | IC50 (NCI-H28): > 512 nM | IC50 (KP-4): > 512 nM | IC50 (RERF-LC-MS): > 512 nM | IC50 (SR): > 512 nM | IC50 (BHY): > 512 nM | IC50 (NCI-H1882): > 512 nM | IC50 (LoVo): > 512 nM | IC50 (U-251): > 512 nM | IC50 (HN): > 512 nM | IC50 (CAL-27): > 512 nM | IC50 (EHEB): > 512 nM | IC50 (HCC70): > 512 nM | IC50 (U-698-M): > 512 nM | IC50 (RT-4): 451 nM | IC50 (OE19): > 512 nM | IC50 (M059J): > 512 nM | IC50 (EFE-184): > 512 nM | IC50 (ECC12): > 512 nM | IC50 (Caov-3 cell line): > 512 nM | IC50 (CMK): > 512 nM | IC50 (NCI-H2342): 186 nM | IC50 (C3A): > 512 nM | IC50 (MDA-MB-134-VI): > 512 nM | IC50 (NB12): > 512 nM | IC50 (SNG-M): > 512 nM | IC50 (SIMA): > 512 nM | IC50 (GCT): > 512 nM | IC50 (T84): > 512 nM | IC50 (Capan-2): > 512 nM | IC50 (NCI-H1623): > 512 nM | IC50 (SK-HEP1): 334 nM | IC50 (SNU-449): 300 nM | IC50 (EGI-1): > 512 nM | IC50 (SNU-387): > 512 nM | IC50 (MKN-45): > 512 nM | IC50 (MFE-296): 118 nM
